{"source": "patent US20210069295A1", "about": "“GALECTINS CONTROL MTOR IN RESPONSE TO ENDOMEMBRANE DAMAGE AND PROVIDE A MECHANISM AND TARGET FOR THE TREATMENT OF AUTOPHAGY-RELATED DISEASES” (STC. UNM, priority 2017, published 2021)", "test_system": "LC3", "assay": "Autophagy induction (LC3-II levels and LC3 puncta) in HEK293T cells", "type": "cell-based", "conditions": "SLC38A9 knockout and wild type HEK293T, 100 μM GPN", "experimental": "(A) Analysis of mTOR activity and autophagy induction in HEK293T cells (WT, wild type) and SLC38A9 knockout (SLC38A9 KO) HEK293T derivatives treated with 100 μM GPN in full medium for the indicated time points. mTOR activity was monitored by immunoblotting analysis of S6K1 phosphorylation at T389 (p-T389). Autophagy induction was monitored by immunoblotting analysis of LC3-II. (B) Analysis of autophagy induction in SLC38A9 KO cells treated with GPN. WT and SLC38A9-KO (SLCKO) HEK293T cells were treated with 100 μM GPN in full medium for 30 min, and LC3 puncta were quantified by HC. […] Data, means±SEM, n≥3 independent experiments (500 primary objects counted per well; ≥ 5 wells/sample per each experiment), **p<0.01, ANOVA. […] WT and SLC38A9 KO HEK293T cells were treated with 100 μM GPN for 1 h followed by 1 h washout in full medium. mTOR activity was monitored by immunoblotting analysis of S6K1 p-T389 and ULK1 p-S757 phosphorylation. Autophagy induction was monitored by immunoblotting analysis of LC3-II. […] Control and FLAG-SLC38A9 overexpressing HEK293T cells were treated with 100 μM GPN in full medium for 30 min, and LC3 puncta were quantified by HC. […] Data, means±SEM, n≥3 independent experiments (500 primary objects counted per well; ≥5 wells/sample per each experiment), **p<0.01, ANOVA. […]", "note": "Peptide text beside a SMILES is read from it.", "data": [{"compound": "NCC(=O)N[C@@H](Cc1ccccc1)C(=O)Nc1ccc2ccccc2c1", "note": "[GPN, glycyl-L-phenylalanine 2-naphththylamide] (HELM PEPTIDE1{G.F.[c1ccc2cc(N[*:1])ccc2c1]}$$$$V2.0)", "values": [{"measurement": "LC3-II levels and LC3 puncta", "value": "increased robustly"}]}]}
